± gives the expanded uncertainty stated by the source.
Conditions: 100 kPa, Liquid, Falling or rolling sphere viscometry

SMILES: O [water]
- viscosity (288.15 K): 1.122 ± 0.035 mPa·s
- viscosity (293.15 K): 0.99 ± 0.031 mPa·s
- viscosity (298.15 K): 0.882 ± 0.027 mPa·s
- viscosity (303.15 K): 0.793 ± 0.025 mPa·s
- viscosity (308.15 K): 0.719 ± 0.022 mPa·s
- viscosity (313.15 K): 0.656 ± 0.02 mPa·s
- viscosity (318.15 K): 0.602 ± 0.019 mPa·s

— the NIST ThermoML archive (doi:10.1021/acs.jced.8b01008)
